Measured values reported in patent US20260226493A1, “HERBICIDE RESISTANT PLANTS” (SYNGENTA CROP PROTECTION AG, priority 2023, published 2026).

Legend:
Assay in all cases: BIO3-BIO1 mutant enzyme activity in the presence of herbicide, percentage inhibition (fluorometric DAPA assay)
Type in all cases: biochemical
Details in all cases: read-out: percentage inhibition
[1] = target: T1, Arabidopsis thaliana BIO3-BIO1 (BioDA) mutants (Arabidopsis thaliana, UniProt B0F481, F348A)
T1 construct: with the predicted N-terminal mitochondrial transit peptide removed; 6xHis-tag (N); thrombin cleavage site (N); made in house; host or cells: E. coli BL21 (DE3) bioA
T1 sequence (B0F481 23-833 F348A): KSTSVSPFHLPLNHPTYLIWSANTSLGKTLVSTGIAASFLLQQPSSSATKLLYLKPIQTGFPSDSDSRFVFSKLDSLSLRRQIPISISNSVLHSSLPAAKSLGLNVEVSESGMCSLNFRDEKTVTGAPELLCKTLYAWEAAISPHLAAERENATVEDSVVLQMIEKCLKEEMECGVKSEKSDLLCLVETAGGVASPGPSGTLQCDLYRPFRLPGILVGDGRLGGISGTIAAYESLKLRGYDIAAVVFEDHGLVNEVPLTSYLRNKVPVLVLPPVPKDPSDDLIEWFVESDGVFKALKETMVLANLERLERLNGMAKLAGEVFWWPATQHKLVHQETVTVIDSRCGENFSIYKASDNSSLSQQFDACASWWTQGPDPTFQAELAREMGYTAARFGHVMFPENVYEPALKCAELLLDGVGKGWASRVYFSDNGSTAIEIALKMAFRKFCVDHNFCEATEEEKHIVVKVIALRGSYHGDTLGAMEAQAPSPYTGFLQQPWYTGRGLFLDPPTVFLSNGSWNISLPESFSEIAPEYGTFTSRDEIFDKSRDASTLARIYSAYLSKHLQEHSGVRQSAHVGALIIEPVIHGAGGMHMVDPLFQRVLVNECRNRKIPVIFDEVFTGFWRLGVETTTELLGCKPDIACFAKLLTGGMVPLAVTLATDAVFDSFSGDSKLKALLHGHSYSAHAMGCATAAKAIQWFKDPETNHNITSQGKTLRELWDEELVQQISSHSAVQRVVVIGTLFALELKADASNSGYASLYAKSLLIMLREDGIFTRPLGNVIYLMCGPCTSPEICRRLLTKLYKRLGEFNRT
In short: (§1)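 His-tagged Arabidopsis BIO3-BIO1 mutants, expressed in E. coli and purified by IMAC and SEC, were preincubated at 50 nM with herbicide for 10 min at 20 °C in EPPS pH 8.6 with pyridoxal phosphate. Reaction with 100 μM spermidine and 20 μM KAPA ran 75 min at 20 °C; DAPA was derivatised with o-phthalaldehyde and read at ex 410/em 470 nm. […].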

[2] = target: T2, Arabidopsis thaliana BIO3-BIO1 (BioDA) mutants (Arabidopsis thaliana, UniProt B0F481, F348D)
T2 construct: with the predicted N-terminal mitochondrial transit peptide removed; 6xHis-tag (N); thrombin cleavage site (N); made in house; host or cells: E. coli BL21 (DE3) bioA
T2 sequence (B0F481 23-833 F348D): as the sequence (B0F481 23-833 F348A) above, with A326D counted along it
In short: as §1

[3] = target: T3, Arabidopsis thaliana BIO3-BIO1 (BioDA) mutants (Arabidopsis thaliana, UniProt B0F481, G610H)
T3 construct: with the predicted N-terminal mitochondrial transit peptide removed; 6xHis-tag (N); thrombin cleavage site (N); made in house; host or cells: E. coli BL21 (DE3) bioA
T3 sequence (B0F481 23-833 G610H): as the sequence (B0F481 23-833 F348A) above, with A326F, G588H counted along it
In short: as §1

[4] = target: T4, Arabidopsis thaliana BIO3-BIO1 (BioDA) mutants (Arabidopsis thaliana, UniProt B0F481, P347A)
T4 construct: with the predicted N-terminal mitochondrial transit peptide removed; 6xHis-tag (N); thrombin cleavage site (N); made in house; host or cells: E. coli BL21 (DE3) bioA
T4 sequence (B0F481 23-833 P347A): as the sequence (B0F481 23-833 F348A) above, with P325A, A326F counted along it
In short: as §1

[5] = target: T5, Arabidopsis thaliana BIO3-BIO1 (BioDA) mutants (Arabidopsis thaliana, UniProt B0F481, P508L)
T5 construct: with the predicted N-terminal mitochondrial transit peptide removed; 6xHis-tag (N); thrombin cleavage site (N); made in house; host or cells: E. coli BL21 (DE3) bioA
T5 sequence (B0F481 23-833 P508L): as the sequence (B0F481 23-833 F348A) above, with A326F, P486L counted along it
In short: as §1

[6] = target: T6, Arabidopsis thaliana BIO3-BIO1 (BioDA) mutants (Arabidopsis thaliana, UniProt B0F481, Q517D)
T6 construct: with the predicted N-terminal mitochondrial transit peptide removed; 6xHis-tag (N); thrombin cleavage site (N); made in house; host or cells: E. coli BL21 (DE3) bioA
T6 sequence (B0F481 23-833 Q517D): as the sequence (B0F481 23-833 F348A) above, with A326F, Q495D counted along it
In short: as §1

[7] = target: T7, Arabidopsis thaliana BIO3-BIO1 (BioDA) mutants (Arabidopsis thaliana, UniProt B0F481, Q517T)
T7 construct: with the predicted N-terminal mitochondrial transit peptide removed; 6xHis-tag (N); thrombin cleavage site (N); made in house; host or cells: E. coli BL21 (DE3) bioA
T7 sequence (B0F481 23-833 Q517T): as the sequence (B0F481 23-833 F348A) above, with A326F, Q495T counted along it
In short: as §1

[8] = target: T8, Arabidopsis thaliana BIO3-BIO1 (BioDA) mutants (Arabidopsis thaliana, UniProt B0F481, Q517W)
T8 construct: with the predicted N-terminal mitochondrial transit peptide removed; 6xHis-tag (N); thrombin cleavage site (N); made in house; host or cells: E. coli BL21 (DE3) bioA
T8 sequence (B0F481 23-833 Q517W): as the sequence (B0F481 23-833 F348A) above, with A326F, Q495W counted along it
In short: as §1

[9] = target: T9, Arabidopsis thaliana BIO3-BIO1 (BioDA) mutants (Arabidopsis thaliana, UniProt B0F481, R756S)
T9 construct: with the predicted N-terminal mitochondrial transit peptide removed; 6xHis-tag (N); thrombin cleavage site (N); made in house; host or cells: E. coli BL21 (DE3) bioA
T9 sequence (B0F481 23-833 R756S): as the sequence (B0F481 23-833 F348A) above, with A326F, R734S counted along it
In short: as §1

[10] = target: T10, Arabidopsis thaliana BIO3-BIO1 (BioDA) mutants (Arabidopsis thaliana, UniProt B0F481, S509K)
T10 construct: with the predicted N-terminal mitochondrial transit peptide removed; 6xHis-tag (N); thrombin cleavage site (N); made in house; host or cells: E. coli BL21 (DE3) bioA
T10 sequence (B0F481 23-833 S509K): as the sequence (B0F481 23-833 F348A) above, with A326F, S487K counted along it
In short: as §1

[11] = target: T11, Arabidopsis thaliana BIO3-BIO1 (BioDA) mutants (Arabidopsis thaliana, UniProt B0F481, Y511R)
T11 construct: with the predicted N-terminal mitochondrial transit peptide removed; 6xHis-tag (N); thrombin cleavage site (N); made in house; host or cells: E. coli BL21 (DE3) bioA
T11 sequence (B0F481 23-833 Y511R): as the sequence (B0F481 23-833 F348A) above, with A326F, Y489R counted along it
In short: as §1

[12] = target: T12, Arabidopsis thaliana BIO3-BIO1 (BioDA) mutants (Arabidopsis thaliana, UniProt B0F481, Y511W)
T12 construct: with the predicted N-terminal mitochondrial transit peptide removed; 6xHis-tag (N); thrombin cleavage site (N); made in house; host or cells: E. coli BL21 (DE3) bioA
T12 sequence (B0F481 23-833 Y511W): as the sequence (B0F481 23-833 F348A) above, with A326F, Y489W counted along it
In short: as §1

SMILES: CCn1c(C)c(-c2ccc(F)cc2F)c(=O)c(C(=O)O)c1-c1ccc(Cl)c(Cl)c1 [Compound C, 2-(3,4-dichlorophenyl)-5-(2,4-difluorophenyl)-1-ethyl-6-methyl-4-oxo-pyridine-3-carboxylic acid]
- inhibition at 0.2 µM [1]: 7%
- inhibition at 1 µM [1]: 0%
- inhibition at 5 µM [1]: 1%
- inhibition at 0.2 µM [2]: 8%
- inhibition at 1 µM [2]: 13%
- inhibition at 5 µM [2]: 0%
- inhibition at 0.2 µM [3]: 19%
- inhibition at 1 µM [3]: 58%
- inhibition at 5 µM [3]: 82%
- inhibition at 0.2 µM [4]: 3%
- inhibition at 1 µM [4]: 27%
- inhibition at 5 µM [4]: 51%
- inhibition at 0.2 µM [5]: 37%
- inhibition at 1 µM [5]: 80%
- inhibition at 5 µM [5]: 92%
- inhibition at 0.2 µM [6]: 0%
- inhibition at 1 µM [6]: 0%
- inhibition at 5 µM [6]: 0%
- inhibition at 0.2 µM [7]: 14%
- inhibition at 1 µM [7]: 47%
- inhibition at 5 µM [7]: 73%
- inhibition at 0.2 µM [8]: 29%
- inhibition at 1 µM [8]: 72%
- inhibition at 5 µM [8]: 90%
- inhibition at 0.2 µM [9]: 24%
- inhibition at 1 µM [9]: 57%
- inhibition at 5 µM [9]: 83%
- inhibition at 0.2 µM [10]: 54%
- inhibition at 1 µM [10]: 88%
- inhibition at 5 µM [10]: 95%
- inhibition at 0.2 µM [11]: 80%
- inhibition at 1 µM [11]: 99%
- inhibition at 5 µM [11]: 99%
- inhibition at 0.2 µM [12]: 41%
- inhibition at 1 µM [12]: 85%
- inhibition at 5 µM [12]: 97%

SMILES: CCn1c(Cn2ccc(C(F)(F)F)n2)cc(=O)c(C(=O)O)c1-c1ccc(Cl)c(Cl)c1 [Compound L, 2-(3,4-dichlorophenyl)-1-ethyl-4-oxo-6-[[3-(trifluoromethyl)pyrazol-1-yl]methyl]pyridine-3-carboxylic acid]
- inhibition at 0.01 µM [1]: 1%
- inhibition at 0.075 µM [1]: 0%
- inhibition at 0.5 µM [1]: 3%
- inhibition at 0.01 µM [2]: 0%
- inhibition at 0.075 µM [2]: 1%
- inhibition at 0.5 µM [2]: 2%
- inhibition at 0.01 µM [3]: 7%
- inhibition at 0.075 µM [3]: 18%
- inhibition at 0.5 µM [3]: 65%
- inhibition at 0.01 µM [4]: 8%
- inhibition at 0.075 µM [4]: 23%
- inhibition at 0.5 µM [4]: 47%
- inhibition at 0.01 µM [5]: 16%
- inhibition at 0.075 µM [5]: 48%
- inhibition at 0.5 µM [5]: 80%
- inhibition at 0.01 µM [6]: 0%
- inhibition at 0.075 µM [6]: 0%
- inhibition at 0.5 µM [6]: 0%

SMILES: CCOC(=O)c1nn(-c2ccc3c(c2)OC(F)(F)C(F)(F)O3)c2cccc(C(C)=O)c2c1=O [Compound A, ethyl 5-acetyl-4-oxo-1-(2,2,3,3-tetrafluoro-1,4-benzodioxin-6-yl)cinnoline-3-carboxylate]
- inhibition at 1 µM [1]: 4%
- inhibition at 1 µM [2]: 0%
- inhibition at 1 µM [3]: 10%
- inhibition at 1 µM [4]: 20%
- inhibition at 1 µM [5]: 34%
- inhibition at 1 µM [6]: 22%
- inhibition at 1 µM [7]: 46%
- inhibition at 1 µM [8]: 9%
- inhibition at 1 µM [9]: 67%
- inhibition at 1 µM [10]: 0%
- inhibition at 1 µM [11]: 46%
- inhibition at 1 µM [12]: 57%

SMILES: CCn1c(-c2ccc(Cl)c(Cl)c2)c(C(=O)O)c(=O)c2cc(F)ccc21 [Compound M, 2-(3,4-dichlorophenyl)-1-ethyl-6-fluoro-4-oxo-quinoline-3-carboxylic acid]
- inhibition at 0.2 µM [1]: 0%
- inhibition at 1 µM [1]: 0%
- inhibition at 5 µM [1]: 6%
- inhibition at 0.2 µM [2]: 0%
- inhibition at 1 µM [2]: 2%
- inhibition at 5 µM [2]: 0%
- inhibition at 0.2 µM [3]: 26%
- inhibition at 1 µM [3]: 59%
- inhibition at 5 µM [3]: 84%
- inhibition at 0.2 µM [4]: 8%
- inhibition at 1 µM [4]: 26%
- inhibition at 5 µM [4]: 52%
- inhibition at 0.2 µM [5]: 18%
- inhibition at 1 µM [5]: 55%
- inhibition at 5 µM [5]: 82%
- inhibition at 0.2 µM [6]: 6%
- inhibition at 1 µM [6]: 2%
- inhibition at 5 µM [6]: 0%
- inhibition at 0.2 µM [7]: 14%
- inhibition at 1 µM [7]: 39%
- inhibition at 5 µM [7]: 71%
- inhibition at 0.2 µM [8]: 26%
- inhibition at 1 µM [8]: 51%
- inhibition at 5 µM [8]: 79%
- inhibition at 0.2 µM [9]: 23%
- inhibition at 1 µM [9]: 54%
- inhibition at 5 µM [9]: 78%
- inhibition at 0.2 µM [10]: 41%
- inhibition at 1 µM [10]: 77%
- inhibition at 5 µM [10]: 90%
- inhibition at 0.2 µM [11]: 74%
- inhibition at 1 µM [11]: 96%
- inhibition at 5 µM [11]: 99%
- inhibition at 0.2 µM [12]: 25%
- inhibition at 1 µM [12]: 67%
- inhibition at 5 µM [12]: 90%
